Assay results taken from patent US9226965B2, “Method and composition for treating heart failure” (U.S. DEPARTMENT OF VETERANS AFFAIRS, priority 2007, dated 2016).
Entries after “also recorded” stand apart in the source; their conditions may differ.

Assays:
Type in all cases: in vivo, rat
[1] = system: left ventricular papillary muscles from SHR with heart failure; assay: Mechanical function of isolated left ventricular papillary muscles from treated SHR with heart failure
Description: At the time of sacrifice, left ventricular papillary muscles were dissected free and mounted in an isolated muscle bath containing oxygenated physiologic solution for assessment of mechanical function. Muscle mechanics were measured under computer control of force or length of the preparation. Force and length data were sampled at a rate of 1 kHz and stored on disk for later analysis.
Treatment was continued for 30 days and then the animals studied.
We studied isolated papillary muscle function in the spontaneously hypertensive rat (SHR) which develops heart failure (HF) between 18-24 month of age. […] Following treatment, hearts were isolated and contractile function of LV papillary muscles studied. LV weight and histology were assessed. RNA was isolated from 24 LV samples and subjected to individual Affymetrix (230 2.0) array analysis.

[2] = system: spontaneously hypertensive rats (SHR) with heart failure; assay: Body weight, cardiac chamber weights and hypertrophy indices in SHR with heart failure after 30 days of treatment
Source text: Adult male spontaneously hypertensive rats (SHR) rats were purchased as retired breeders from Taconic Inc and boarded in the animal facility at the Boston VA Healthcare system until the time of study (18 to 24 months of age). Each rat was caged alone and allowed free access to chow and water. Animals were monitored several times per week for evidence of tachypnea and labored respiration; when these clinical findings were clearly in evidence, animals were either killed and studied or treated with captopril and/or phenylbutyrate. Groups of animals were treated by adding the angiotensin converting enzyme inhibitor captopril to the drinking water (2 g/L to drinking water) and/or phenylbutyrate to the drinking water (6 g/L to the drinking water; sodium 4-phenylbutyrate (Triple Crown America, Inc.)) when clinical evidence of impaired cardiac function was detected. Treatment was continued for 30 days, the animals closely monitored and then studied. A control group of age-matched, untreated SHR rats was used for comparison. At autopsy, animals were examined for pleural or pericardial effusions, atrial thrombi, and right and left ventricular hypertrophy. The heart was lightly blotted and weight, and individual cardiac chambers were quickly dissected, and chamber weight recorded. Left ventricular tissue samples were rapidly frozen and stored in liquid nitrogen for later mRNA analysis. Subsequently, total RNA was isolated from all left ventricular samples and subjected to individual Affymetrix (230 2.0) array analysis (performed at the Genomics Laboratory of Boston University School of Medicine, Boston Mass.). Six individual animals were included in each experimental group. Table 1 (below) summarizes body weight, cardiac chamber weight, and ratios with and without treatment. Referring to Table 1, four groups of six SHR/group were examined: non-treated SHR with heart failure (SHR-F), age matched controls without heart failure (SHR-NF), and SHR with heart failure treated with the angiotensin converting enzyme inhibitor captopril (2 g/L in drinking water) (SHR-F+C) or captopril combined with the histone deacetylase inhibitor phenylbutyrate (6 g/L in the drinking water) for 30 days (SHR-F+CP). […] It was observed that SHR rats with heart failure had enlarged hearts and increased cardiac chamber weights relative to non-failing SHR group and the captopril treated SHR groups. In contrast, the rats treated with phenylbutyrate and captopril had far smaller cardiac chamber weights. There were no significant differences in body weight among the experimental groups. Indices of cardiac hypertrophy (i.e. LV/body weight ratio and RV/body weight ratios) were reduced with phenylbutyrate treatment. Cardiac chamber weight to tibia length data confirmed these findings.

[3] = system: SHR with heart failure; assay: Serial echocardiographic measurement of LV ejection fraction in SHR; conditions: echocardiography, SHR-F following 30 days of treatment, n=6 per group
Source text: FIGS. 1A-1B illustrate serial echocardiographic measurements in SHR. LV ejection fraction (FIG. 1A) and end-systolic and end-diastolic LV volume (FIG. 1B) of male SHR during the transition to heart failure (12, 17, and 19 months of age). EF, LV ejection fraction (%); ESV, end-systolic volume (ml); EDV, end-diastolic volume (ml). LV function remains compensated until approximately 17 months, and then rapidly declines; mean age at onset of heart failure 19±1 months. FIGS. 2A-2B represent serial echocardiographic measurements (n=6 animals per group) of LV ejection fraction (LVEF) from individual SHR obtained before the onset of heart failure (Baseline), at the time of heart failure (HF) and following 30 days of treatment (Rx) with either captopril (CAPT—FIG. 2A) or combined captopril and phenylbutyrate treatment (CAPT+PB—FIG. 2B). Note marked reduction in LVEF with HF. […] FIG. 3 illustrates LV ejection fraction (LVEF) in non-failing SHR (SHR-NF), SHR with HF (SHR-F) and SHR-F following 30 days of captopril (CAPT) or combined phenylbutyrate and captopril treatment (CAPT+PB). […] Data are mean±SD (n=6 per group).

[4] = system: SHR with heart failure; assay: Quantitative histological examination of myocardial fibrosis; conditions: Table 3, 30 days treatment, mean ± SD
Description: We studied isolated papillary muscle function in the spontaneously hypertensive rat (SHR) which develops heart failure (HF) between 18-24 month of age. Four groups of SHR each consisting of six animals were examined: non-treated SHR with HF (SHR-F), age matched controls without HF (SHR-NF), and SHR with HF that were treated with the ACE inhibitor captopril (2 g/L in drinking water) (SHR-F+C) or captopril combined with the histone deacetylase inhibitor phenylbutyrate (6 g/L in drinking water) for 30 days (SHR-F+CP). […] Following treatment, hearts were isolated and contractile function of LV papillary muscles studied. LV weight and histology were assessed. RNA was isolated from 24 LV samples and subjected to individual Affymetrix (230 2.0) array analysis. Table 3 (below) summarizes the physiological, histological and gene expression findings from this study. […] SHR-F; see FIGS. 7A-7B).

[5] = system: left ventricular tissue from SHR with heart failure; assay: Affymetrix (230 2.0) array mRNA analysis of left ventricular tissue from treated SHR with heart failure
Source text: Adult male spontaneously hypertensive rats (SHR) rats were purchased as retired breeders from Taconic Inc and boarded in the animal facility at the Boston VA Healthcare system until the time of study (18 to 24 months of age). Each rat was caged alone and allowed free access to chow and water. Animals were monitored several times per week for evidence of tachypnea and labored respiration; when these clinical findings were clearly in evidence, animals were either killed and studied or treated with captopril and/or phenylbutyrate. Groups of animals were treated by adding the angiotensin converting enzyme inhibitor captopril to the drinking water (2 g/L to drinking water) and/or phenylbutyrate to the drinking water (6 g/L to the drinking water; sodium 4-phenylbutyrate (Triple Crown America, Inc.)) when clinical evidence of impaired cardiac function was detected. Treatment was continued for 30 days, the animals closely monitored and then studied. A control group of age-matched, untreated SHR rats was used for comparison. At autopsy, animals were examined for pleural or pericardial effusions, atrial thrombi, and right and left ventricular hypertrophy. The heart was lightly blotted and weight, and individual cardiac chambers were quickly dissected, and chamber weight recorded. Left ventricular tissue samples were rapidly frozen and stored in liquid nitrogen for later mRNA analysis. Subsequently, total RNA was isolated from all left ventricular samples and subjected to individual Affymetrix (230 2.0) array analysis (performed at the Genomics Laboratory of Boston University School of Medicine, Boston Mass.). Six individual animals were included in each experimental group. […] FIGS. 7A-7B provide a visual summary of the quantitative changes in transcripts observed with heart failure (SHR-F) compared to non-failing gene expression (SHR-F vs. SHR-NF) and those effects of treatment (SHR-F+C and SHR-F+CP) relative to un-treated SHR with heart failure. […] FIGS. 8A-8B provide a summary of the number of identified transcripts whose expression was reversed following treatment relative to un-treated SHR with failure. In contrast, phenylbutyrate when combined with captopril treatment reversed expression of more than 47% of heart failure-induced changes in gene expression (p<0.01). […] Analysis of pooled mRNA samples of right ventricular tissue indicate relatively few genes were differentially expressed between LV and RV tissue either with failure or treatment (data not shown). LV and RV are similarly affected by heart failure and amenable to therapeutic treatment effects. Taken together, these findings are consistent with the concept that phenylbutyrate acts as a wide scale inhibitor of transcription to reverse aspects of adverse remodeling and dysfunction associated with heart failure. […] We studied isolated papillary muscle function in the spontaneously hypertensive rat (SHR) which develops heart failure (HF) between 18-24 month of age. Four groups of SHR each consisting of six animals were examined: non-treated SHR with HF (SHR-F), age matched controls without HF (SHR-NF), and SHR with HF that were treated with the ACE inhibitor captopril (2 g/L in drinking water) (SHR-F+C) or captopril combined with the histone deacetylase inhibitor phenylbutyrate (6 g/L in drinking water) for 30 days (SHR-F+CP). […] Following treatment, hearts were isolated and contractile function of LV papillary muscles studied. LV weight and histology were assessed. RNA was isolated from 24 LV samples and subjected to individual Affymetrix (230 2.0) array analysis. Table 3 (below) summarizes the physiological, histological and gene expression findings from this study. […] SHR-F; see FIGS. 7A-7B).

[6] = Table 2, LV papillary muscle after 30 days treatment, mean ± SD
[7] = Table 3, LV papillary muscle after 30 days treatment, mean ± SD
[8] = Table 1, SHR with heart failure, 30 days treatment, mean ± SD, n=6
[9] = Table 3, LV samples, p < 0.01 vs. SHR-F
[10] = of 1431 genes different between SHR-F and SHR-NF, p<0.01 vs. SHR-F

SMILES: C[C@H](CS)C(=O)N1CCC[C@H]1C(=O)O [captopril]
- quick release force-velocity (F-V) relationships from LV papillary muscles, result in words ([1]; FIG. 6A): not significantly increased
- active tension (AT) of LV papillary muscles, result in words ([1]; FIG. 6B): did not improve
- contractile function and passive muscle stiffness, result in words ([1]; SHR with heart failure, 30 days treatment): did not restore contractile function or reduce passive muscle stiffness
- +dT/dt (rate of tension development) [1, 6]: 28.4 ± 8.0 g/mm^2/s
- AT (active tension) [1, 6]: 2.7 ± 0.4 g/mm^2
- Kwm (whole muscle stiffness) [1, 6]: 73.9 ± 4.2
- V1.0 (shortening velocity) [1, 6]: 0.9 ± 0.2 muscle length/s
- AT (active tension) [1, 7]: 2.7 ± 0.4 g/mm^2
- V0.1 (shortening velocity) [1, 7]: 0.9 ± 0.2 muscle lengths/s
- LV/BW ratio, index of LV hypertrophy, result in words ([2]; FIG. 4A, SHR-F following 30 days of treatment): no significant reduction
- RV/BW ratio, index of RV hypertrophy, result in words ([2]; FIG. 4B, SHR-F following 30 days of treatment): decreased with treatment
- LV/body wt. (left ventricular to body weight ratio) [2, 8]: 3.3 ± 0.3^+ ratio
- RV/body wt. (right ventricular to body weight ratio) [2, 8]: 0.86 ± 0.20^+ ratio
- LV/Body Weight (ratio) ([2]; Table 3, SHR with heart failure, 30 days treatment, mean ± SD): 3.3 ± 0.4 ratio
- LV ejection fraction (LVEF), result in words [3]: minimal improvement; also recorded: no significant change
- Fibrosis (%) [4]: 22.8 ± 3.1 %
- Gene Expression (number), down-regulated (↓) vs. SHR-F [5, 9]: 42
- Gene Expression (number), up-regulated (↑) vs. SHR-F [5, 9]: 99
- number of identified genes down-regulated by treatment (overexpressed/induced with heart failure) ([5]; identified transcripts): 12
- number of identified genes up-regulated by treatment (repressed with heart failure) ([5]; identified transcripts): 15
- number of identified genes whose expression was reversed by treatment ([5]; identified transcripts, relative to un-treated SHR with failure): 27
- number of genes whose change in expression was significantly reversed [5, 10]: 141
- percentage of genes whose change in expression was significantly reversed [5, 10]: 9.8%
- transcripts significantly modified with treatment ([5]; of heart failure-altered transcripts, p<0.01): < 2%
